{"source": "patent US7932422B2", "about": "“Use of chlorine guanabenz derivatives for treating polyglutamine expansion associated diseases” (priority 2006, dated 2011)", "key": {"[1]": {"test_system": "yeast prions", "format": "cell-based", "settings": "erg6Δ [PSI+] yeast strain, compound spotted on filter, halo of red [psi-] colonies"}, "[2]": {"test_system": "full length endogenous Huntingtin in 293T cells", "test": "immunoblot of full length endogenous Huntingtin in 293T cells", "format": "cell-based", "settings": "same extracts as for the N-terminal fragment", "protocol": "b: 293T cells were transfected with Htt48 and treated with the indicated compounds in DMSO at the indicated doses or DMSO alone 4 h posttransfection. SDS lysates collected 48 h post-transfection were analyzed on a 10% SDS-PAGE followed by immunoblot with Htt 2B4 and vimentin antibodies. To reveal full length Huntingtin, the same extracts were analyzed on a 4.5% SDS-PAGE followed by immunoblot PAGE followed by immunoblot with an oligoclonal mixture of Huntingtin antibodies: 2B4, 4C8 and 2E8.\n(§1) Psi114 and Cl-Psi114 reduce polyQ accumulation both in their soluble and insoluble form. In developing therapeutic approaches, targeting specifically the pathogenic fragment of Huntingtin is a fundamental concern because Huntingtin is an essential gene. The inventors tested the effect of active compounds on endogenous full length Huntingtin in the same extracts as tested for the N-terminal fragment of Huntingtin. Psi114 and Cl-Psi114 have no effect on the levels of full length endogenous Huntingtin in 293T cells while these 2 compounds effectively reduce accumulation of the N-terminal pathogenic fragment of Huntingtin (FIG. 1b). Cl-Psi114 has also no effect on the level of full length endogenous Huntingtin in HD patient lymphoblastoid cell line."}, "[3]": {"test_system": "aggregated Htt48 in 293T cells", "test": "filter retardation assay of lysates of Htt48-transfected 293T cells", "format": "cell-based", "settings": "lysates 48 h post-transfection"}, "[4]": {"test_system": "NG108-15 cells", "test": "vimentin level in NG108-15 neuronal-like cell model of HD", "format": "cell-based", "settings": "drugs added 12 h post-induction, extracts 3 days after treatment", "protocol": "(§2) NG108-15 cells were induced for differentiation and T73 expression as described in Lunkes et al, 2002 and treated with the indicated compounds in DMSO at the indicated doses or DMSO alone 12 h post-induction. SDS lysates collected […] were analyzed by SDS-PAGE followed by immunoblot with Htt 2B4 and vimentin antibodies. Images were acquired and quantified with the Chemi-Smart system (Vilber Lourmat). Quantification of T73 signals is presented as histograms. Signal from DMSO treated cells is used as a reference and set as 1.\nDrugs were added 12 h post-induction at the indicated doses. Protein extracts were collected 3 days after treatment and analyzed by immunoblots. […] The aggregates formed in these cells were below the detection level of the filter retardation assay precluding a robust quantitative analysis of the effects of the molecules on aggregate. However, because both aggregates and pathological symptoms are reversible with blockade of pathological protein expression, it is likely that aggregates in NG108-15 cells will diminish as a consequence of decreased accumulation of T73 by treating neurons with Psi114 or Cl-Psi114."}, "[5]": {"test_system": "full length endogenous Huntingtin in HD patient lymphoblastoid cell line", "test": "full length endogenous Huntingtin in HD patient lymphoblastoid cell line", "format": "cell-based", "text": "as §1"}, "[6]": {"test_system": "truncated huntingtin with 73Q repeats (T73) in NG108-15 cells", "test": "NG108-15 neuronal-like cell model of HD, immunoblot of T73", "format": "cell-based", "settings": "drugs added 12 h post-induction, extracts 3 days after treatment", "protocol": "as §2\nThe Guanabenz (Psi114) and Chloroguanabenz (Cl-Psi114) effects were so far tested in actively dividing yeast and 293T cells (Lunkes et al., 1998). Because neurons are the target of Huntington and the threat for accumulation of misfolded proteins being exacerbated in neuronal, post-mitotic cells, the inventors next tested the effect of Psi114 and Cl-Psi114 in NG10815 neuronal-like cell model of HD. NG108-15 cells were induced for expression of truncated huntingtin with 73Q repeats (T73) and differentiation.\nDrugs were added 12 h post-induction at the indicated doses. Protein extracts were collected 3 days after treatment and analyzed by immunoblots. […] The aggregates formed in these cells were below the detection level of the filter retardation assay precluding a robust quantitative analysis of the effects of the molecules on aggregate. […]"}, "[7]": {"test_system": "N-terminal fragment of Huntingtin derivative with 48 glutamines (Htt48) in 293T cells", "test": "293T cells transfected with Htt48, immunoblot of SDS lysates with Htt 2B4 antibody", "format": "cell-based", "settings": "for activity on Htt48 accumulation: 293T cells, up to 100 μM"}, "[8]": {"test_system": "293T cells"}}, "note": "Entries after “also recorded” stand apart in the source; their conditions may differ. Structures can show the parent of a compound that is named as a salt."}
{"smiles": "N=C(N)N/N=C/c1c(Cl)ccc(Cl)c1Cl", "note": "[Cl-Psi114, Chloroguanabenz]", "values": [{"measurement": "activity in the yeast anti-prion screen", "setting": "[1]", "result": "active; also recorded: more active in the yeast anti-prion screen that Psi114"}, {"measurement": "effect on levels of full length endogenous Huntingtin", "setting": "[2]", "result": "no effect"}, {"measurement": "levels of aggregated Htt48", "setting": "[3]", "result": "decrease in a dose dependent manner"}, {"measurement": "vimentin level", "setting": "[4]", "result": "remains unaltered"}, {"measurement": "effect on level of full length endogenous Huntingtin", "setting": "[5]", "result": "no effect"}, {"measurement": "T73 level", "setting": "[6]", "result": "reduction of T73 in a dose dependant manner"}]}
{"smiles": "Nc1c(/N=N/c2ccc(-c3ccc(/N=N/c4cc(S(=O)(=O)O)c5ccccc5c4N)cc3)cc2)cc(S(=O)(=O)O)c2ccccc12", "note": "[Congo red]", "values": [{"measurement": "activity in the Htt48 293T system", "setting": "[7]; dose of 500 μM", "result": "barely detectable activity"}]}
{"smiles": "N=C(N)N", "note": "[GuHCL, guanidine hydrochloride]", "values": [{"measurement": "activity in the yeast anti-prion screen", "setting": "[1]", "result": "positive control"}]}
{"smiles": "N=C(N)N/N=C/c1c(Cl)cccc1Cl", "note": "[Psi114, Guanabenz]", "values": [{"measurement": "activity in the yeast anti-prion screen", "setting": "[1]", "result": "potent activity against yeast prions; also recorded: active in yeast cells"}, {"measurement": "effect on levels of full length endogenous Huntingtin", "setting": "[2]", "result": "no effect"}, {"measurement": "levels of aggregated Htt48", "setting": "[3]", "result": "decrease in a dose dependent manner; also recorded: delayed"}, {"measurement": "vimentin level", "setting": "[4]", "result": "remains unaltered"}, {"measurement": "T73 level", "setting": "[6]", "result": "reduction of T73 in a dose dependant manner"}]}
{"smiles": "Clc1cccc(Cl)c1N=C1NCCN1", "note": "[Psi211, Clonidine]", "values": [{"measurement": "activity on Htt48 accumulation", "setting": "[7]", "result": "completely inactive"}]}
{"smiles": "c1ccc(C2CC2)c(OCC2=NCCN2)c1", "note": "[Psi214, Cirazoline]", "values": [{"measurement": "toxicity", "setting": "[8]", "result": "some toxicity"}]}
{"smiles": "C1COC(NC(C2CC2)C2CC2)=N1", "note": "[Psi215, Rilmenidine]", "values": [{"measurement": "toxicity", "setting": "[8]", "result": "some toxicity"}]}
{"smiles": "CCC1(C2=NCCN2)Cc2ccccc2O1", "note": "(centres unmarked) [Psi216, Efaroxan]", "values": [{"measurement": "activity on Htt48 accumulation", "setting": "[7]", "result": "completely inactive"}]}
